The record followed here is patent US20240124483A1, “Methods for the Treatment of Fibrotic Disease” (SHY Therapeutics, LLC, priority 2021, published 2024).

Where two headings read alike, the source gives them in different places.

One experiment deals with KRas G12C mutant (Homo sapiens (Human), UniProt P01116, G12C). Kind of experiment: Ras GTP Binding Domain Inhibition Assay, KRas G12C mutant. An outline of the steps:
(§1)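 His-tagged GTPase immobilized on nickel-coated plates (10-30 μg/mL, overnight, 4° C), then exposed to compound (20 μM or serial dilution for IC50, 1% DMSO) for 3 h at room temperature, with or without His-tagged Sos (residues 556-1049) in the final hour. Bound Cy3-GTP or Cy5-GTP (100 nM, 45 min) was read by fluorescence after washing.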

A further experiment deals with KRas wild type (Homo sapiens (Human), UniProt P01116). Kind of experiment: Ras GTP Binding Domain Inhibition Assay, KRas wild type. Summed up:
as §1

A further experiment has as its system JNK. The experiment can be described thus: JNK Activation Assay in Panc-1 (western blot). Format: cell-based, Human. On the set-up: key: Y = yes; N = No. Conditions: at 10 μM. Summed up:
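Cells were serum-starved overnight in 0.5% FBS, then given compound (10 μM single dose or serial dilutions, 0.3% DMSO) for 3 h at 37 °C. TGF-b1 at 10 ng/ml followed, 1 h for Panc-1 and 20 min for C2C12. Phospho-JNK (Thr183/Tyr185) was read by western blot of lysates.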
For orientation: In western blotting, separated proteins are transferred to a membrane and probed.

In another experiment the target is KRas G12D mutant (Homo sapiens (Human), UniProt P01116, G12D). The experiment can be described thus: Ras GTP Binding Domain Inhibition Assay, KRas G12D mutant. Conditions: for inhibition at 20 µM: Table 7; for KRas G12D mutant + SOS: % inh. / KRas G12D mutant: % inh.: 20 uM, Table 8. An outline of the steps: as §1
The next experiment concerns the target Rho-A (Homo sapiens (Human), UniProt P61586). The experiment can be described thus: Ras GTP Binding Domain Inhibition Assay, Rho-A. An outline of the steps: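 Fluorescent GTP binding to plate-captured His-tagged Ras: compound 20 μM (or dilution series for IC50), 3 h RT, ±Sos GEF 10-30 μg/mL last hour; then 100 nM Cy3/Cy5-GTP 45 min RT, wash ×3, read bound label.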

Where [1] appears, read: + SOS, read-out: KRas G12C mutant + SOS: % inh.
Where [2] appears, read: without SOS, read-out: KRas G12C mutant: % inh.
Where [3] appears, read: + SOS, read-out: KRas wild type + SOS: % inh.
[4] abbreviates: without SOS, read-out: KRas wild type: % inh.
[5] abbreviates: + SOS, read-out: KRas G12D mutant + SOS: % inh.
The mark [6] stands for this setting: without SOS, read-out: KRas G12D mutant: % inh.
The mark [7] stands for this setting: without SOS, read-out: Rho-A: % inh.

Sequence of KRas G12C mutant (P01116 other isoform, or with tags, fused parts or gaps G12C): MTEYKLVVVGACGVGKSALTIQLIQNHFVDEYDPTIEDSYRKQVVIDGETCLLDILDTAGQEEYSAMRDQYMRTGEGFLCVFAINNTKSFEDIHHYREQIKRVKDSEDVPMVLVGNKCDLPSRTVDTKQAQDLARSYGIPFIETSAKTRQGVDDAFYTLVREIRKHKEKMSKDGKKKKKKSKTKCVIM
Sequence of KRas wild type (P01116 other isoform, or with tags, fused parts or gaps): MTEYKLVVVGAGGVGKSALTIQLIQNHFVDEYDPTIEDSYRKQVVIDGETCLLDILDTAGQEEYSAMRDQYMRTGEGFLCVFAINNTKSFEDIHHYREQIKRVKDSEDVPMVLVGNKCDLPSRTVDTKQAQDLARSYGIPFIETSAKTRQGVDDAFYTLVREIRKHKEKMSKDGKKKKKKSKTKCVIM
Sequence of KRas G12D mutant (P01116 other isoform, or with tags, fused parts or gaps G12D): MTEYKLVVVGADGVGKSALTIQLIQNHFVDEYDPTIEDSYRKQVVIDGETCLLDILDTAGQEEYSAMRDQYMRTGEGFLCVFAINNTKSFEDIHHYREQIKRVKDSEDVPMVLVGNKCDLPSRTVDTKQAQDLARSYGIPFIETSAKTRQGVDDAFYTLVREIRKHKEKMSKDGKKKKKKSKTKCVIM
Sequence of Rho-A (P61586 whole entry, species assumed, the tested form may be a part): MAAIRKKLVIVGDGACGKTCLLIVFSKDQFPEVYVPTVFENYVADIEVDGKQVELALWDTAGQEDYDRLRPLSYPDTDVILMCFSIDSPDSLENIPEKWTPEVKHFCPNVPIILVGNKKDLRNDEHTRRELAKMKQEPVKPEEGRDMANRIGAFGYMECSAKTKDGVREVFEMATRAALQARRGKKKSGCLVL

On to `COc1cc(-c2sc3nc(-c4nccn4C)nc(N[C@@H]4CC[C@@H](OC)C4)c3c2-c2ccccc2)ccn1` (racemic) [Compound 47, N-((1R,3R)-3-Methoxycyclopentyl)-6-(2-methoxypyridin-4-yl)-2-(1-methyl-1H-imidazol-2-yl)-5-phenylthieno[2,3-d]pyrimidin-4-amine], for which the inhibition at 20 µM on KRas G12C mutant (setting [1]) lay in the range of 76 to 100%; at KRas G12C mutant (setting [2]), 46 to 75%; at KRas wild type (setting [3]), 76 to 100%; on KRas wild type (setting [4]), 76 to 100%; at KRas G12D mutant (setting [5]) it was 76 to 100%; at KRas G12D mutant (setting [6]), 46 to 75%. Moreover, the inhibition at 20 µM at Rho-A (setting [7]) lay within 46 to 75%. Further, the “Activation of JNK in PANC-1” value in the experiment on JNK is given as “Y”. In addition, on KRas G12D mutant (+ SOS), the “KRas G12D mutant + SOS: % inh.” value is reported as “D (D = 76-100% inhibition)”. Further, the “KRas G12D mutant: % inh.” value at KRas G12D mutant (without SOS) was “C (C = 46-75% inhibition)”.
As for `COCCN(C)c1nc(-c2nccn2C)nc2sc(-c3ccccc3)c(-c3ccccc3)c12` [Compound 2, N-(2-Methoxyethyl)-N-methyl-2-(1-methyl-1H-imidazol-2-yl)-5,6-diphenylthieno[2,3-d]pyrimidin-4-amine], the inhibition at 20 µM was in the range of 26 to 45% at KRas G12C mutant (setting [2]), 46 to 75% at KRas wild type (setting [4]), 46 to 75% on KRas G12D mutant (setting [6]) and 26 to 45% on Rho-A (setting [7]). For the same compound, the “Activation of JNK in PANC-1” value with JNK is reported as “Y”. Besides, at KRas G12D mutant (without SOS), the “KRas G12D mutant: % inh.” value is “C (C = 46-75% inhibition)”.
In the case of `COCCn1ccnc1-c1nc(N[C@H]2C[C@@H](OC)C2)c2c(-c3ccccc3)c(-c3ccn(C)n3)sc2n1` [Compound 13, N-((1s,3s)-3-methoxycyclobutyl)-2-(1-(2-methoxyethyl)-1H-imidazol-2-yl)-6-(1-methyl-1H-pyrazol-3-yl)-5-phenylthieno[2,3-d]pyrimidin-4-amine], the inhibition at 20 µM was 76 to 100% at KRas G12C mutant (setting [1]); 76 to 100% on KRas G12C mutant (setting [2]); 76 to 100% on KRas wild type (setting [3]); 76 to 100% on KRas wild type (setting [4]); 76 to 100% on KRas G12D mutant (setting [5]); 46 to 75% on KRas G12D mutant (setting [6]). Besides, the inhibition at 20 µM lay in the range of 76 to 100% at Rho-A (+ SOS, read-out: Rho-A + SOS: % inh.) and 76 to 100% on Rho-A (setting [7]). Further, the “Activation of JNK in PANC-1” value with JNK is on record as “Y”. In addition, on KRas G12D mutant (+ SOS), the “KRas G12D mutant + SOS: % inh.” value is on record as “D (D = 76-100% inhibition)”. In addition, on KRas G12D mutant (without SOS), the “KRas G12D mutant: % inh.” value is on record as “C (C = 46-75% inhibition)”.
On to `COc1cccc(Nc2nc(-c3nccn3C)nc3sc(-c4ccn(C(C)C)n4)c(C)c23)n1` [Compound 18, 6-(1-Isopropyl-1H-pyrazol-3-yl)-N-(6-methoxypyridin-2-yl)-5-methyl-2-(1-methyl-1H-imidazol-2-yl)thieno[2,3-d]pyrimidin-4-amine], for which the inhibition at 20 µM at KRas G12C mutant (setting [1]) was 46 to 75%; on KRas G12C mutant (setting [2]), 46 to 75%; at KRas wild type (setting [3]), 46 to 75%; at KRas wild type (setting [4]) it was 46 to 75%; at KRas G12D mutant (setting [5]), 46 to 75%; on KRas G12D mutant (setting [6]), 76 to 100%. Moreover, the inhibition at 20 µM at Rho-A (setting [7]) lay in the range of 76 to 100%. The “Activation of JNK in PANC-1” value in the experiment with JNK is “Y”. Moreover, the “KRas G12D mutant + SOS: % inh.” value at KRas G12D mutant (+ SOS) is reported as “C (C = 46-75% inhibition)”. The “KRas G12D mutant: % inh.” value on KRas G12D mutant (without SOS) is listed as “D (D = 76-100% inhibition)”.
